SMILES strings stand for the structures.

T1 sequence (P47869 29-451): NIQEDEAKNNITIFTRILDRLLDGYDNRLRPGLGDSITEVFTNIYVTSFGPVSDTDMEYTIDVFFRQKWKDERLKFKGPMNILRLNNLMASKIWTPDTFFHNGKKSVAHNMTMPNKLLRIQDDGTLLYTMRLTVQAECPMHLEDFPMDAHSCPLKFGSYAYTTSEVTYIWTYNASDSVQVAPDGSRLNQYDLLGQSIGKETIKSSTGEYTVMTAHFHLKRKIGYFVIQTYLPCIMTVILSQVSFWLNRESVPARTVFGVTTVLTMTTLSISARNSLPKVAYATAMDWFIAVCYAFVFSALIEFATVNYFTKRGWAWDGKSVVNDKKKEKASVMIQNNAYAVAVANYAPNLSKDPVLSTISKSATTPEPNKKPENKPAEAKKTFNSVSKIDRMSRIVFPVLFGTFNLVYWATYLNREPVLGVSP
T1 sequence (P18507 40-467 isoform P18507-1 limits assumed): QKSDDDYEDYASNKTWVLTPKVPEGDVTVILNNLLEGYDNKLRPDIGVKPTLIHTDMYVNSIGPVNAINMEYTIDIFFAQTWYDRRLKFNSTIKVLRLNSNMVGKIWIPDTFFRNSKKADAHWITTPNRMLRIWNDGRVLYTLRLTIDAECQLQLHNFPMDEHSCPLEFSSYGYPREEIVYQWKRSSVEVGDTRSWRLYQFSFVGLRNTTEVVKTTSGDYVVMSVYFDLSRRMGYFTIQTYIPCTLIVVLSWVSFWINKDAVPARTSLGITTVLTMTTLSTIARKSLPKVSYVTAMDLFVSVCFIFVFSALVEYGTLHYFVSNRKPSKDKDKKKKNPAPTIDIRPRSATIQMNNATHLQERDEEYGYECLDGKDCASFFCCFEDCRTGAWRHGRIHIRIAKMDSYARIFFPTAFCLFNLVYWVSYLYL
T1 sequence (P28472 26-473 partner): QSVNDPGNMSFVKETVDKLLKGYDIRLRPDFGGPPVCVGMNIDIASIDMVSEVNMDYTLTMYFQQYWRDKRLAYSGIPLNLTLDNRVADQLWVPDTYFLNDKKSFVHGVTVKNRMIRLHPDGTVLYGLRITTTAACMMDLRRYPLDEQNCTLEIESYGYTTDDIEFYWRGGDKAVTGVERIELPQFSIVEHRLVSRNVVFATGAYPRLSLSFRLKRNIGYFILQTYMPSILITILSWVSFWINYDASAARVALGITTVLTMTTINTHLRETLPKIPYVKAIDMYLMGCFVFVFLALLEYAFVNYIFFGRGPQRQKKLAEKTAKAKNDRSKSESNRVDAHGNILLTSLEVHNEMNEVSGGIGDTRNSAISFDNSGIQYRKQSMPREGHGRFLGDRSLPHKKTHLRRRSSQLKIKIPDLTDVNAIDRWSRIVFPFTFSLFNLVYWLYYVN

This assay concerns the target T1, α2-GABAA receptor (Homo sapiens, UniProt P18507+P47869).
T1 construct: expressed in transfected cells
Description: Whole-cell patch-clamp electrophysiology, positive allosteric modulatory activity in α2-GABAAR-HEK293 cells. The following applies: compound 100 nM; GABA 0.10 to 0.11 µM (approximately EC7-8); normalized to reference compound CVL-865 (= 100%); read-out: α2-GABAAR Positive allosteric modulatory activity. It counts as cell-based. The source says:
The α subunit, β subunit, and γ subunit are indispensable for forming a fully functional GABAA receptor. In this example, HEK293 cells stably expressing α2-GABAA receptors (α2-GABAAR) were constructed and screened respectively via liposome transfection (Felgner, P.L., et al. Proceedings of the National Academy of Sciences, 1987, 84: 7413-7417). The α2-GABAAR-HEK293 cell model co-expresses the α2 subunit (protein sequence referenced under GenBank accession number: NM_000807.4), β3 subunit (protein sequence referenced under GenBank accession number: NM_000814.5), and γ2 subunit (protein sequence referenced under GenBank accession number: NM_000816.3).
The above cell lines were subcultured. α2-GABAAR-HEK293 cells were amplified for testing the affinity of compounds to the benzodiazepine (BZD) site of GABAA receptors. Some of the α2-GABAAR-HEK293 cells in suspension during subculturing were plated on glass slides pre-treated with Poly-D-Lysine for electrophysiological testing (method reference: Patent CN 107344936 A, paragraph 0586).
The positive modulatory activity of the test drug on the α2-GABAA receptor was assessed using electrophysiological methods. The specific approach is as follows:
With regards to the concentration of the compound, the final concentration of all compounds used in the screening was 100 nM. For cell lines expressing α2-GABAA receptors, the GABA concentration was 0.10 to 0.11 µM (approximately EC7-8). Electrophysiological experiments were conducted using the whole-cell patch-clamp technique, which can be referenced to the method reported in the literature (Nickolls, S. A., et al. *British Journal of Pharmacology*, 2018, 175: 708-725). The composition of the extracellular solution (ECS) for electrophysiology was as follows: 150 mM NaCl, 5 mM KCl, 2.5 mM CaCl2, 1 mM MgCl2, 10 mM HEPES, and 10 mM glucose (pH 7.4). The intracellular solution (ICS) for electrophysiology was formulated as follows: 140 mM CsCl, 11 mM EGTA, 10 mM HEPES, 2 mM CaCl2, 1 mM MgCl2, 4 mM MgATP, and 2 mM TEA (pH 7.3). GABA (γ-aminobutyric acid) powder was dissolved in pure water to prepare a stock solution, which was subsequently diluted in ECS. The compound was initially dissolved in dimethyl sulfoxide to prepare a 4 mM stock solution, followed by stepwise dilution into GABA-ECS at corresponding concentrations. All solutions were freshly prepared prior to electrophysiological testing.
Electrophysiological signals were acquired using an EPC 10 amplifier and PatchMaster software (HEKA) or an Axon 700B amplifier and Clampex software (AXON). The recording electrode was pulled from borosilicate glass, with an electrode resistance of 4 to 6 MΩ. Extracellular administration was performed using the ALA-VC-8PG™ system. A single independently growing cell was selected. After forming a tight seal between the glass electrode and the cell membrane, the membrane was ruptured to establish the whole-cell configuration. The cell membrane potential was clamped at -60 mV and recorded in Gap-free mode. During the test, extracellular fluid was first applied externally for approximately 20 seconds. After the baseline (Iprebaseline) was stabilized, the extracellular solution was switched to GABA-ECS. At this point, the current induced by GABA (Igaba) can be detected. After approximately 10 to 20 seconds, once the current had stabilized, the extracellular solution was switched to a mixture of the compound and GABA-ECS until the current induced by both the compound and GABA (Itreatment) could be detected. Finally, the solution was switched to extracellular fluid, and the recording was terminated after 20 to 40 seconds. Only cells with a stable baseline, an absolute control current magnitude (Igaba - Iprebaseline) greater than 40 pA, and a relatively stable current within 10 to 20 seconds were used for compound testing. […]
As for `CCn1cnc2c(-c3ccc(F)c(-c4ccc(S(=O)(=O)CC)cc4OC)c3)cnnc21` [CVL-865, reference compound], the Emax at 0.1 µM came to 100%.
Next, `CCNC(=O)c1nc2c(-c3c(F)cccc3OC)cccn2c1N` [Example 2, 3-Amino-8-(2-fluoro-6-methoxyphenyl)-N-ethylimidazo[1,2-a]pyridine-2-carboxamide]: 35%.
The value for `COc1cccc(F)c1-c1cccn2c(N)c(C(=O)NC34CC(C3)C4)nc12` [Example 11, 3-Amino-N-(bicyclo[1.1.1]pent-1-yl)-8-(2-fluoro-6-methoxyphenyl)imidazo[1,2-a]pyridine-2-carboxamide] was 27%.
The value for `COc1cccc(F)c1-c1cccn2c(N)c(C(=O)Nc3ccccn3)nc12` [Example 14, 3-Amino-8-(2-fluoro-6-methoxyphenyl)-N-(pyridin-2-yl)imidazo[1,2-a]pyridine-2-carboxamide] was 54%; that for `COc1cccc(F)c1-c1cccn2c(N)c(C(=O)Nc3cnn(C)c3)nc12` [Example 15, 3-Amino-8-(2-fluoro-6-methoxyphenyl)-N-(1-methyl-1H-pyrazol-4-yl)imidazo[1,2-a]pyridine-2-carboxamide] was 61%; that for `COc1cccc(F)c1-c1cccn2c(N)c(C(=O)NCc3ccccn3)nc12` [Example 20, 3-Amino-8-(2-fluoro-6-methoxyphenyl)-N-(pyridin-2-methyl)imidazo[1,2-a]pyridine-2-carboxamide] was 35%.
For the compound `COc1cccc(F)c1-c1cccn2c(N)c(C(=O)NCCc3ccccc3)nc12` [Example 21, 3-Amino-8-(2-fluoro-6-methoxyphenyl)-N-phenethylimidazo[1,2-a]pyridine-2-carboxamide], the Emax at 0.1 µM worked out at 43%.
Next, `COc1cccc(F)c1-c1cccn2c(N)c(C(=O)NCCO)nc12` [Example 22, 3-Amino-8-(2-fluoro-6-methoxyphenyl)-N-(2-hydroxyethyl)imidazo[1,2-a]pyridine-2-carboxamide]: 25%.
The value for `COc1cccc(F)c1-c1cccn2c(N)c(C(=O)NCCCO)nc12` [Example 23, 3-Amino-8-(2-fluoro-6-methoxyphenyl)-N-(3-hydroxypropyl)imidazo[1,2-a]pyridine-2-carboxamide] was 57%.
The value for `COCCNC(=O)c1nc2c(-c3c(F)cccc3OC)cccn2c1N` [Example 24, 3-Amino-8-(2-fluoro-6-methoxyphenyl)-N-(2-methoxyethyl)imidazo[1,2-a]pyridine-2-carboxamide] was 39%; that for `C=CCNC(=O)c1nc2c(-c3c(F)cccc3OC)cccn2c1N` [Example 30, N-Allyl-3-amino-8-(2-fluoro-6-methoxyphenyl)imidazo[1,2-a]pyridine-2-carboxamide] was 81%.
As for `C#CCNC(=O)c1nc2c(-c3c(F)cccc3OC)cccn2c1N` [Example 31, N-Propargyl-3-amino-8-(2-fluoro-6-methoxyphenyl)imidazo[1,2-a]pyridine-2-carboxamide], the Emax at 0.1 µM was found to be 26%.
The value for `CCCNC(=O)c1nc2c(-c3cccc(/C(C)=N/OC)c3)cccn2c1N` [Example 38, (E)-3-Amino-8-(3-(1-(methoxyimino)ethyl)phenyl)-N-propylimidazo[1,2-a]pyridine-2-carboxamide] was 50%; that for `CC#Cc1cccc(-c2cccn3c(N)c(C(=O)NCCC)nc23)c1` [Example 40, 3-Amino-8-(3-(prop-1-yn-1-yl)phenyl)-N-propylimidazo[1,2-a]pyridine-2-carboxamide] was 25%.
In the case of `CCCNC(=O)c1nc2c(-c3cccc(N4CCOC4=O)c3)cccn2c1N` [Example 41, 3-Amino-8-(3-(2-oxooxazolidin-3-yl)phenyl)-N-propylimidazo[1,2-a]pyridine-2-carboxamide], the Emax at 0.1 µM was 30%.
Next, `CCCNC(=O)c1nc2c(-c3cccc(-c4ccnnc4)c3)cccn2c1N` [Example 44]: 31%.

The record behind these values is EP4703359A1 (Shanghai Simr Biotechnology Co., Ltd., priority 2023, dated 2024).
